Data on 17 compounds can be found in patent publication US20080039629A1, “Benzothniazole compositions and their use as ubiquition ligation inhibitors” (RIGEL PHARMACEUTICALS, INC., priority 2003, published 2008).

Molecules are shown by their SMILES.

This assay deals with T1, E1 and His-E2 Ubch10 (Homo sapiens, UniProt P22314).
T1 construct: host or cells: E. coli (His-Ubch10); Sf9 insect cells (E1)
T1 sequence (P22314 1-1058): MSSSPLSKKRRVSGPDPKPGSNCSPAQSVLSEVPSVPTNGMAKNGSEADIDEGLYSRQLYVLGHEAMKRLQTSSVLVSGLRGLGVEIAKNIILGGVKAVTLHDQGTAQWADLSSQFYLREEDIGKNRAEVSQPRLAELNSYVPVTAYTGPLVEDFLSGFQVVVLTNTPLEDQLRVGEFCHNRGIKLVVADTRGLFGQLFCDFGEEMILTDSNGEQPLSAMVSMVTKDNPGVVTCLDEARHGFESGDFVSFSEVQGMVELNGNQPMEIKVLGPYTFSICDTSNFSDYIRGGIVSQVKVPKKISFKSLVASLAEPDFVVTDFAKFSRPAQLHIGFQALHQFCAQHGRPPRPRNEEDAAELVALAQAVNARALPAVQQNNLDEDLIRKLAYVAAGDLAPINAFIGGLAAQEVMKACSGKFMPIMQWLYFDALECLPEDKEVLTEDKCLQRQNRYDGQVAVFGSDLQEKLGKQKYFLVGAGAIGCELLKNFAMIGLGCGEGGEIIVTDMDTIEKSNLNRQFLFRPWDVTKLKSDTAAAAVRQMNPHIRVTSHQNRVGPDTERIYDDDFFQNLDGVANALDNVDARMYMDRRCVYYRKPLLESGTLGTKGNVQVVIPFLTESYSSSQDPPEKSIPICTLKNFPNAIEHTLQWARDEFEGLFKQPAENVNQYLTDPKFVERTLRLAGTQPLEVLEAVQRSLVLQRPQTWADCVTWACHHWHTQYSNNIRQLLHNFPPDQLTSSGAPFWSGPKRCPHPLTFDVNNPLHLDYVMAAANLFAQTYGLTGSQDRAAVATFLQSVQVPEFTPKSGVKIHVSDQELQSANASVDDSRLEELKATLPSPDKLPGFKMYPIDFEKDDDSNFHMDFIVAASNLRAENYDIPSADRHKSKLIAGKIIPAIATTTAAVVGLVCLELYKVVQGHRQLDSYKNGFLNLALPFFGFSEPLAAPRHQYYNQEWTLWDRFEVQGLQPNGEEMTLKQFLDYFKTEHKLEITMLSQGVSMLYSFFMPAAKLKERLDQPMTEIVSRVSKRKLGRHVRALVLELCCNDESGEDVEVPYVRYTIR
Put plainly: E1 to E2 transfer assay, His-E2 Ubch10, 1.0 μM ATP (low ATP). Format: biochemical. To be noted: Table 5, ATP inhibition properties; inhibition measured using IC50 values. The source says:
Biological assays for determining the transfer of ubiquitin from the E1 activating agent to the E2 conjugating agent are described in U.S. patent application Ser. Nos. 09/542,497 and 09/826,312 as well as in the PCT Application WO 01/75145, all of which are incorporated by reference in their entirety. The following assay example illustrates one way by which the ubiquitin ligase inhibitory activity of the compounds of the invention can be assayed. This assay example is not meant to limit in any way the use of the compounds of the invention as ubiquitin ligase inhibitors.
The attachment of a ubiquitin moiety to the E2 conjugating agent was assayed using Flag-ubiquitin that was purified from E. coli, E2 Ubch10 that was purified as a His-Ubch10 from E. coli, and E1 that was purified from Sf9 insect cells (Affiniti Research Products, Exeter, U.K.). The wells of a Nickel-substrate 96-well plate (Pierce Chemical) were blocked with 100 μl of 1% casein/phosphate buffered saline (PBS) for 1 hour at room temperature. The blocked Nickel-substrate plate was then washed three times with 200 μl of PBST (0.1% Tween-20 in PBS). Subsequently, Flag-ubiquitin reaction solution was added to each well so that the final concentration was 62.5 mM Tris pH 7.5, […], 0.75 mM DTT, 1.0 μM ATP (low ATP), and 100 ng Flag-ubiquitin. The final reaction solution volume was fixed to 80 μl with Millipore-filtered water. To this was added the following: a ubiquitin agent inhibitor in 10 μl of DMSO, 10 μl of E1 and His-E2 Ubch10 in 20 mM Tris buffer, pH 7.5, and 5% glycerol so that there was 10 ng/well of E1 and 20 ng/well of His-E2 Ubch10. The reaction was then allowed to proceed at room temperature for 1 hour.
After 1 hour, the wells were washed three times with 200 μl of PBST and the amount of E2-ubiquitin complex was measured. For measuring the amount of the E2-ubiquitin complex, 100 μl of Mouse anti-flag diluted 1:10,000 (Sigma Aldrich Fluka Chemicals, St. Louis, Mo.) and anti-mouse HRP diluted 1:15,000 (Jackson Immunoresearch labs, West Grove, Pa.) in PBST were added to each well and allowed to incubate at room temperature for another hour. The wells were then washed three times with 200 μl of PBST and 100 μl of luminol substrate (⅕ dilution) was added. The luminescence of each well was then measured using a […] to calculate the amount of E2-ubiquitin complex. This procedure was repeated using His-E2 Ubch5C instead of His-E2 Ubch10.
The table below illustrates the inhibitory properties of the pharmaceutical compostions of the invention comprising the compounds listed in the table using the assays described above. Inhibition was measured using IC50 values.

In the case of `Cc1ccc(C(=O)Nc2nc3ccc([N+](=O)[O-])cc3s2)cc1C` [Compound 79, 3,4-dimethyl-N-(6-nitrobenzo[d]thiazol-2-yl)benzamide], the UBC10 result was “++ (++ indicates inhibition at 50 μM or or less)”.

Turning to `Cc1ccc2nc(NC(=O)c3ccc(C)c(C)c3)sc2c1` [Compound 80, 3,4-dimethyl-N-(6-methylbenzo[d]thiazol-2-yl)benzamide], the UBC10 result was “−− (−− indicates marginal or no inhibition detected with this assay)”.

For `CCCc1ccc(C(=O)Nc2nc3ccc(OC)cc3s2)cc1` [Compound 81, N-(6-methoxybenzo[d]thiazol-2-yl)-4-propylbenzamide], the UBC10 entry is “++ (++ indicates inhibition at 50 μM or or less)”.

As to `CCCCc1ccc(C(=O)Nc2nc3ccc(OC)cc3s2)cc1` [Compound 82, 4-butyl-N-(6-methoxybenzo[d]thiazol-2-yl)benzamide], the UBC10 entry was “++ (++ indicates inhibition at 50 μM or or less)”.

Take `CCCCCCc1ccc(C(=O)Nc2nc3ccc(OC)cc3s2)cc1` [Compound 83, 4-hexyl-N-(6-methoxybenzo[d]thiazol-2-yl)benzamide]: the UBC10 entry is recorded as “−− (−− indicates marginal or no inhibition detected with this assay)”.

Take `Cc1ccc(C(=O)Nc2nc3ccccc3s2)cc1` [Compound 84, N-(benzo[d]thiazol-2-yl)-4-methylbenzamide]: the UBC10 result is listed as “++ (++ indicates inhibition at 50 μM or or less)”.

For the compound `CCc1ccc(C(=O)Nc2nc3ccccc3s2)cc1` [Compound 85, N-(benzo[d]thiazol-2-yl)-4-ethylbenzamide], the UBC10 result is recorded as “++ (++ indicates inhibition at 50 μM or or less)”.

Regarding `Nc1ccc(C(=O)Nc2nc3ccccc3s2)cc1` [Compound 86, 4-amino-N-(benzo[d]thiazol-2-yl)benzamide], the UBC10 entry is “−− (−− indicates marginal or no inhibition detected with this assay)”.

Consider `COc1ccc2nc(NC(=O)c3ccco3)sc2c1` [Compound 87, N-(6-methoxybenzo[d]thiazol-2-yl)furan-2-carboxamide], for which the UBC10 result was “++ (++ indicates inhibition at 50 μM or or less)”.

For `O=C(Nc1nc2ccccc2s1)c1ccco1` [Compound 88, N-(benzo[d]thiazol-2-yl)furan-2-carboxamide], the UBC10 entry is on record as “−− (−− indicates marginal or no inhibition detected with this assay)”.

Regarding `O=C(Nc1nc2ccccc2s1)c1cccs1` [Compound 89, N-(benzo[d]thiazol-2-yl)thiophene-2-carboxamide], the UBC10 result is “−− (−− indicates marginal or no inhibition detected with this assay)”.

Take `CCOc1ccc2nc(NC(=O)c3ccc4c(c3)OCCO4)sc2c1` [Compound 90, N-(6-ethoxybenzo[d]thiazol-2-yl)-2,3-dihydrobenzo[b][1,4]dioxine-6-carboxamide]: the UBC10 entry is recorded as “++ (++ indicates inhibition at 50 μM or or less)”.

Take `CCOc1ccc2nc(NC(=O)c3ccc(CC)cc3)sc2c1` [Compound 91, N-(6-ethoxybenzo[d]thiazol-2-yl)-4-ethylbenzamide]: the UBC10 entry is on record as “−− (−− indicates marginal or no inhibition detected with this assay)”.

With `CCOc1ccc2nc(NC(=O)c3ccc(C)cc3)sc2c1` [Compound 92, N-(6-ethoxybenzo[d]thiazol-2-yl)-4-methylbenzamide], the UBC10 entry was “−− (−− indicates marginal or no inhibition detected with this assay)”.

Take `CCOc1ccc2nc(NC(=O)c3ccc(C)c(C)c3)sc2c1` [Compound 93, N-(6-ethoxybenzo[d]thiazol-2-yl)-3,4-dimethylbenzamide]: the UBC10 result is listed as “−− (−− indicates marginal or no inhibition detected with this assay)”.

In the case of `CCOc1ccc2nc(NC(=O)c3ccc(NC(C)=O)cc3)sc2c1` [Compound 94, 4-acetamido-N-(6-ethoxybenzo[d]thiazol-2-yl)benzamide], the UBC10 entry is “−− (−− indicates marginal or no inhibition detected with this assay)”.

As for `COc1ccc2nc(NC(=O)c3ccc(Cl)c(Cl)c3)sc2c1` [Compound 95, 3,4-dichloro-N-(6-methoxybenzo[d]thiazol-2-yl)benzamide], the UBC10 result is on record as “++ (++ indicates inhibition at 50 μM or or less)”.
